The record followed here is ChEMBL document CHEMBL4665684, “Antibacterial and NF-κB Inhibitory Lumazine Peptides, Aspochalasin, γ-Butyrolactone Derivatives, and Cyclic Peptides from a Hawaiian Aspergillus flavipes” (J Nat Prod, 2020).

Converted amounts (≈) assume the structure as drawn. The source made the active and inactive calls. The rule behind the calls is not given here. Numbered stars: 1 amine (or outer) side, 2 acyl side, 3 side chain; on linkers, the order of the positions; unused ones are H or OH. Square brackets hold non-standard residues; d marks the D form. Peptide text beside a SMILES is read from it. X2 = CC(C)=CCc1cc([C@H](O)[C@H](N[*:1])C(=O)[*:2])ccc1O; X1 = O=C([C@@H](N[*:1])[C@@H](O)c1ccc(O)cc1)[*:2]

The IC50 is the point on the concentration scale where inhibition reaches its midpoint. A low value points to greater potency in that assay. Usually MIC stands for the lowest concentration found to suppress growth.

Test [1] in a line: Inhibition of TNFalpha-induced NFkappaB activation in HEK293 cells after 6 hrs by luciferase reporter gene assay. It counts as cell-based. Particulars: Homo sapiens, HEK293, 6 h. On the technique in general: In a reporter assay the amount or activity of a reporter protein is the signal.
The test system of a further test is A2780. As to the kind of experiment: Antiproliferative activity against human A2780 cells at 40 uM by SRB assay. It counts as functional, cell-based. For orientation: The SRB assay estimates cell density from bound dye.
Test [2] deals with Staphylococcus aureus. As to the kind of experiment: Antibacterial activity against Staphylococcus aureus ATCC 43300 at 80 ug/ml. It counts as functional, organism-based. The conditions noted are these: dose 80.0 µg/ml.
Test [3] concerns Staphylococcus aureus. Nature of the test: Antibacterial activity against Staphylococcus aureus ATCC 43300 in presence of disulfiram. It counts as functional.
For test [4], the system named is Staphylococcus aureus. Nature of the test: Antibacterial activity against Staphylococcus aureus ATCC 43300. Format: functional.

Turning to `CC1=C[C@@H]2/C=C(\C)CCC(O)C(O)C(O)CC(=O)[C@]23C(=O)N[C@@H](CC(C)C)[C@@H]3[C@@H]1C` (some centres undefined), the IC50 in test [1] was 3.1 µM. Further, the outcome in the test with A2780 was inactive. Turning to `CC(C)[C@@H]1NC(=O)CNC(=O)[C@@H]2CCCN2C(=O)[C@H](Cc2c[nH]c3ccccc23)NC(=O)CNC(=O)[C@H]([C@@H](O)c2ccc(O)cc2)NC(=O)CNC1=O` (cyclo(GVG[X1]GWP)), the outcome with Staphylococcus aureus [2] and with A2780 was inactive. Besides, in test [1], it took 10.3 µM to reach half-maximal inhibition (IC50). Also, the minimal inhibitory concentration (MIC) in the test with Staphylococcus aureus [3] amounted to 10 µg/mL.

Turning to `CC(C)=CCc1cc([C@H](O)[C@@H]2NC(=O)CNC(=O)[C@H](C(C)C)NC(=O)CNC(=O)[C@@H]3CCCN3C(=O)[C@H](Cc3c[nH]c4ccccc34)NC(=O)CNC2=O)ccc1O` (cyclo(GVG[X2]GWP)), the result in the test with Staphylococcus aureus [2] and with A2780 was inactive. The minimal inhibitory concentration (MIC) in the test with Staphylococcus aureus [3] is 10 µg/mL.

Take `C[C@H](O)C(=O)[C@@H](C)C/C=C/[C@H]1[C@@H]2O[C@]2(C)[C@@H](C)[C@H]2[C@H](Cc3ccccc3)NC(=O)[C@]21O`: the result in the test with A2780 was inactive. In the case of `O=C(N[C@H](CO)[C@H](O)c1ccc([N+](=O)[O-])cc1)C(Cl)Cl` [CHLORAMPHENICOL], the results for the minimum inhibitory concentration (MIC) with Staphylococcus aureus [3] and against Staphylococcus aureus [4] were 2.5 µg/mL and 6.25 µg/mL (≈ 19.3 µM), respectively. Regarding `Cn1c(=O)c2nc(C(=O)N[C@@H](CC[S+](C)[O-])C(=O)Nc3ccccc3C(=O)O)cnc2n(C)c1=O` (some centres undefined), the result in the test with A2780 was inactive. In the case of `[C-]#[N+]c1ccccc1NC(=O)[C@H](C)NC(=O)c1cnc2c(n1)c(=O)n(C)c(=O)n2C`, in the test with A2780, the outcome was inactive. Take `Cn1c(=O)c2nc(C(=O)N[C@@H](CCC(N)=O)C(=O)Nc3ccccc3C(=O)O)cnc2n(C)c1=O`: the result in the test with A2780 was inactive. On to `COC1=C(c2ccc(O)cc2)[C@@H](Cc2ccc(O)cc2)OC1=O`, for which the result in the test with Staphylococcus aureus [2] and in the test on A2780 was inactive. Further, the MIC with Staphylococcus aureus [3] was 10 µg/mL. Turning to `C[C@H](NC(=O)c1cnc2c(n1)c(=O)n(C)c(=O)n2C)C(=O)Nc1ccccc1C(=O)O`, the outcome in the test on A2780 was inactive. For `CC1=C[C@H](/C=C(\C)C[C@@H](O)[C@@H](O)/C=C/C(=O)O)[C@]2(O)C(=O)N[C@@H](CC(C)C)[C@@H]2[C@@H]1C`, the result with A2780 was inactive. Same read-out and setting: under `COC(=O)c1ccccc1NC(=O)[C@H](CC[S+](C)[O-])NC(=O)c1cnc2c(n1)c(=O)n(C)c(=O)n2C` (some centres undefined) stands “inactive”; under `COC(=O)[C@]1(Cc2ccc(O)c(CC=C(C)C)c2)OC(=O)C(OC)=C1c1ccc(O)cc1`, “inactive”. In the case of `COC1=C(c2ccc(O)cc2)[C@@H](Cc2ccc(O)c(CC=C(C)C)c2)OC1=O`, the outcome with A2780 was inactive. For `Cn1c(=O)c2nc(C(=O)N[C@@H](CO)C(=O)Nc3ccccc3C(=O)O)cnc2n(C)c1=O`, in the test on A2780, the result was inactive.
